Consider one compound from patent US9745288B2, “Compounds and methods for treating cancer by inhibiting the urokinase receptor” (Indiana University Research and Technology Corporation, priority 2011, dated 2017).

One data set concerns TMD-231 cells. In words: TMD-231 mammary fat pad xenograft, tumor growth and lung metastasis. The data set is classed as in vivo. From the text: Mouse Xenograft Studies. NOD/SCID mice were obtained from the on-site breeding colony maintained by the In Vivo Therapeutics Core at the Indiana University Simon Cancer Center (IUSM, Indianapolis, Ind.) and maintained in pathogen-free conditions within the laboratory animal resources center (LARC) at the Indiana University School of Medicine according to an approved protocol by the Institutional animal care and use committee (IACUC) committee.
For metastasis studies, m.f.p. tumors were allowed to grow to approximately 100 mm^3 mice. Mice were assigned to treatment group based on average tumor size/weight. Following a recovery period of two days, mice received treatment of investigational drug (n=15) or a PBS solvent control (n=15). After four weeks mice were euthanized, the lungs were resected, fixed in formalin solution, sectioned, and stained with hematoxylin and eosin (H&E) for analysis. […] Tumor volume were be calculated as Length*Width^2/2 in millimeters.
TMD-231 cells were inoculated into the mammary fat pad of female NOD/SCID mice. Dosing was initiated at day 18 post implantation. Animals were randomized and treated with vehicle or with IPR-69 by daily oral gavage at a dose of 150 mg/kg (n=11). Tumor volumes were determined by caliper measurements on a […], and calculated according to the formula (α2×β)/2, where α is the shorter and β is the longer of the two dimensions. Tumor volumes were determined by caliper measurements on a weekly basis. The study was conducted over a period of 68 days. […] Once the tumor volume reached 30 mm^3 to 50 mm^3, animals were randomized and treated with vehicle alone as control or 150 mg/kg IPR-69 three times a week for 10 weeks by oral gavage. Tumor volumes were determined by caliper measurements obtained weekly. Over the course of the study, several mice were sacrificed to determine whether breast tumor cells had metastasized to the lungs. At the end of the study, control and experimental animals were sacrificed and organs (lungs) were removed and evaluated for the presence of tumors. The number and size of metastasis in two to five fields per sample were calculated. […] Briefly, percentage of staining was categorized as “0” if there was no nuclear/cytoplasmic expression, “1” for up to 10% positive tumor nuclei/cells, “2” for 11-20% and until a maximum score of “10”. Intensity was scored as “1+,” “2+,” and “3+” for weak, moderate and strong staining respectively.

For data set [1], the system named is MDA-MB-231 cells. In words: Migration assay (Boyden chamber without Matrigel). The data set is classed as cell-based. Particulars: Homo sapiens.
Method: Invasion and Migration Assays. These assays were performed using BD BioCoat Matrigel Invasion Chamber (Cat. 354480, BD Biosciences, Bedford, Mass.). The undersurface of the inserts was coated with 30 μg/mL of fibronectin (Sigma, F2006) in PBS at 4° C. overnight. The inserts were washed with PBS once. Then, 0.5 mL of serum-free medium was separately added to the upper and lower chambers to equilibrate the Matrigel invasion chambers at 37° C., 5% CO2 for 2 hours. After starvated with serumfree DMEM or 4 hours, subconfluent MDA-MB-231 cells were trypsinized and resuspended in 0.1% FBS DMEM. 5×10^4 cells in 500 μL of 0.1% FBS DMEM containing various compounds or 1.0% DMSO (as control) were added to the upper chambers. […] We incubated the invasion chambers for 3 hours at 37° C., 5% CO2. Non-invaded cells were removed from the upper chamber with a cotton swab. The invaded cells were fixed with 100% methanol and then stained with Hematoxylin Stain Harris Modified Method (Fisher, SH30-500D). The filters were washed with water 3 times. Filters were air dried and the invaded cells were counted in ten randomly selected microscopic fields (×200 magnification). The experiment was performed in triplicate per group and shown by mean±SE.
Data set [2] is described as follows: In vivo PK study, plasma HPLC MS/MS. Further details: species or system mouse. Particulars: mice. As for the experimental part:
Pharmacokinetics of the Leads in Rodents. A method to quantify IPR-69 in plasma was developed using HPLC-MS/MS (API 3200; Applied Biosystems). A 20 μL plasma sample was extracted with methyl tertiary butyl ether (MTBE) under neutral conditions (0.1 M phosphate buffer pH=7.4) using temazepam as the internal standard. The extract is evaporated, reconstituted with mobile phase and injected into the HPLC. The HPLC column is a C-8 50×4.6 mm 5-μm column and separation of UPR and temazepam occurred by a linear gradient mobile phase starting with acetonitrile:0.1% formic acid (10:90) and changing to 80:20. The m/z Q1 and Q3 settings on the API 3200 for UPR and temazepam are 418/297 and 301/255, respectively. The lower limit of quantification of IPR-69 is 1 ng/mL using 20 μL of plasma. A standard response curve of IPR-69 was created with concentrations that varied from 1 ng/mL to 1000 ng/mL using 300 ng/mL of temazepam for each sample. To determine drug concentrations of the lead inhibitors in the pharmacological models, the PK properties of the compounds in mice must be characterized. The PK of IPR-69 was determined in NOD/SCID mice following a single dose given PO. The study design used 3 mice per time point. Blood was collected at time intervals from 0 to 24 hours after dosing (8 time points), quantified by the procedure described above. Pharmacokinetic parameters for IPR-69 including area under the curve (AUC), area under the moment curve (AUMC), and t1/2 were estimated using non-compartmental methods with Excel®. The maximum plasma concentration (Cmax) and time of Cmax (tmax) were obtained from the data. The AUC from zero to infinity (AUC0-∞) was estimated from the AUC0-t (time zero to the last quantifiable concentration Clast) and the AUC from Clast to infinity, Clast/kel, where kel is the rate constant of elimination. The AUMC0-∞ was estimated by an analogous manner. The systemic clearance (Cl/F, where F=bioavailability) of IPR-69 was calculated from the dose and AUC0-∞. […]

Data set [3] relates to MDA-MB-231 cells. In words: Adhesion assay on fibronectin-coated wells. Particulars: Homo sapiens; MDA-MB-231, fibronectin. The data set is classed as cell-based, human. As for the experimental part: Adhesion Assay. Quantitative cell adhesion assays were carried out in nontissue culture treated 96-well microtiter plates (Evergreen Scientific, Los Angeles, Calif.) which were coated with 15 μg/mL fibronectin (Sigma) for 1 h at room temperature. Fibronectin coated and uncoated control wells were blocked for 1 h with 3% heat denatured bovine serum albumin (BSA) at 37° C. Cells were split one day prior to the experiment to achieve a subconfluent culture. […] The wells were washed and the number of adherent cells was quantified by crystal violet staining at 570 nm.^19,20 The results were shown by means±SE.

`Cc1cc(C)cc(NC(=O)c2cnn(-c3ccc(C(C)C)cc3)c2C2CCNCC2)c1` [IPR-69, N-(3,5-dimethylphenyl)-1-(4-isopropylphenyl)-5-(piperidin-4-yl)-1H-pyrazole-4-carboxamide]: the “treated mice with metastatic lesions of score >2” value in the data set with TMD-231 cells (150 mg/kg oral gavage) was found to be 3. Besides, the “tumor volume at the end of the study” value in the data set on TMD-231 cells (150 mg/kg oral gavage, average, 68 days) is listed as 779 mm^3. The “treated mice with signs of metastatic lesions in the lungs” value in the data set with TMD-231 cells (150 mg/kg oral gavage, n=11) is on record as 3 out of 11. The “metastasis to the lungs” value in the data set with TMD-231 cells (compared with untreated mice) is “less extensive metastasis to the lungs”. Also, in the data set on TMD-231 cells (doses as high as 150 mg/kg, mice), the tolerability entry is recorded as “well tolerated”. The IC50 (usually the concentration that gives 50% inhibition) is 40 µM in the data set with MDA-MB-231 cells [1] and 45 µM in the data set with MDA-MB-231 cells [3]. Further, the half-life (as a rule, how long it takes for the measured level to halve) in data set [2] (NOD/SCID, mouse, plasma, estimated, single oral gavage of 50 mg/kg) was about 2 h. Also, the “oral bioavailability” value in data set [2] was “orally bioavailable”. The “time of maximum level” value in data set [2] (single oral gavage of 50 mg/kg) is given as “approximately 5 hours”.
